pEC50: −log10 of the molar value.
System: SARS-associated coronavirus
Assay: organism not typed
Assay type: cell-based
Conditions: for pEC50 / EC50: Vero; for pEC50: tested as in Example 1
[1] = Vero cell cultures, cytopathic effect scored 72-96 h after infection, mean of eight assays

Compound | effect on replication of the SARS-associated coronaviruses (Vero cells) | Therap. IndexI (Vero cells) | pEC50 (Vero cell cultures) | further results
O=c1cnn([C@@H]2O[C@H](CO)[C@@H](O)[C@H]2O)c(=O)[nH]1 [Compound 6-azauridine, 6-azauridine] | inhibited replication of SARS-CV at non-toxic doses |  |  | Selectivity Index (ratio CC50/EC50, Vero cells): 6; Selectivity Index (ratio CC50/EC50, Vero cells, listed as 6-azuridine): 5
COC(=O)[C@@]1(C)CC[C@]2(C)CC[C@]3(C)C(=CC(=O)C4[C@@]5(C)CCC(OC6OC(C(=O)NN)C(O)C(O)C6OC6OC(C(=O)NN)C(O)C(O)C6O)C(C)(C)C5CC[C@]43C)C2C1 (some centres unmarked) [Compound 7] |  | 4 | 4.80 | 
COC(=O)[C@@]1(C)CC[C@]2(C)CC[C@]3(C)C(=CC(=O)C4[C@@]5(C)CCC(OC6OC(CO)C(O)C(O)C6OC6OC(CO)C(O)C(O)C6O)C(C)(C)C5CC[C@]43C)C2C1 (some centres unmarked) [Compound 8] |  | 6 | 5.10 | 
CC1(C)C(OC2OC(C(=O)O)C(O)C(O)C2OC2OC(C(=O)O)C(O)C(O)C2O)CC[C@@]2(C)C1CC[C@]1(C)C2C(=O)C=C2C3C[C@@](C)(C(=O)O)CC[C@]3(C)CC[C@]21C.N (some centres unmarked) [Glycyrrhizin Monoammonium Salt] |  | 2 | 3.49 | 
CC1(C)C(OC2OC(C(=O)O)C(O)C(O)C2OC2OC(C(=O)O)C(O)C(O)C2O)CC[C@]2(C)[C@H]3C(=O)C=C4[C@@H]5C[C@@](C)(C(=O)O)CC[C@]5(C)CC[C@@]4(C)[C@]3(C)CC[C@@H]12 (stereo partly drawn) [Glycyrrhizin, (3-beta,20-beta)-20-Carboxy-11-oxo-30-norolean-12-en-3-yl 2-O-beta-D-glucopyranuronosyl-alpha-D-glucopyranosiduronic acid] |  |  |  | EC50 (compound added after virus adsorption, Vero cells): 600 µg/mL; EC50 (compound added during and after virus adsorption, Vero cells): 300 µg/mL; EC50 (compound added during virus adsorption, Vero cells): 2400 µg/mL; Selectivity Index (after virus adsorption, CC50/EC50): >33; Selectivity Index (during and after virus adsorption, CC50/EC50): >67
COc1c(C)c2c(c(O)c1C/C=C(\C)CCC(=O)O)C(=O)OC2 [Mycophenolic acid] | did not affect replication |  |  | EC50 [1]: > 50 µg/mL
NC(=O)c1[nH]nc([C@@H]2O[C@H](CO)[C@@H](O)[C@H]2O)c1O [Pyrazofurin] | inhibited replication of SARS-CV at non-toxic doses |  |  | Selectivity Index (ratio CC50/EC50, Vero cells): 12
NC(=O)c1ncn([C@@H]2O[C@H](CO)[C@@H](O)[C@H]2O)n1 [Ribavirin] | did not affect replication |  |  | EC50 [1]: > 1000 µg/mL

— patent US20070099855A1 (priority 2003, published 2007)
